Measured values: patent US8937062B2, “Compositions and methods for treating, reducing, ameliorating, or preventing infections caused by antibacterial drug-resistant bacteria” (Bausch & Lomb Incorporated, priority 2007, dated 2015)
Values after ≈ are worked out from the molar mass of the structure shown. Where two headings read alike, the source gives them in different places.

Columns and labels:
Assay type in all cases: cell-based
OFLX-resistant S. aureus = assay: MIC90, agar plate dilution method (NCCLS), Table 2; details: Staphylococcus aureus, 10 isolates, read-out: MIC90 Geometric Mean
Method: (§1) The MIC90 values for this test were determined by the agar plate dilution method according to the National Committee for Clinical Laboratory Standards (“NCCLS”).

[1] = test system: PCG-resistant S. pneumoniae; assay: MIC90, agar plate dilution method (NCCLS), Table 2; details: 10 isolates
Method: as §1

GM-resistant S. aureus = assay: MIC90, agar plate dilution method (NCCLS), Table 2; details: Staphylococcus aureus, 10 isolates, read-out: MIC90 Geometric Mean
Method: as §1

[2] = test system: APC-resistant Haemophilus influenza.; assay: MIC90, agar plate dilution method (NCCLS), Table 2; details: for MIC90: Haemophilus
Method: as §1

[3] = test system: OFLX-resistant Enterobacteriaceae; assay: MIC90, agar plate dilution method (NCCLS), Table 2
Method: as §1

[4] = test system: GM-resistant P. aeruginosa; assay: MIC90, agar plate dilution method (NCCLS), Table 2; details: 10 isolates
Method: as §1

[5] = test system: S. aureus Clinical Isolates; assay: In vitro activity against clinical isolates, sixth test, Table 7; details: Staphylococcus aureus, 49 isolates
[6] = test system: S. pneumoniae Clinical Isolates; assay: as above; details: 78 isolates; for MIC90: Streptococcus pneumoniae
[7] = test system: S. pneumoniae, penicillin-resistant; assay: MIC90, broth microdilution (CLSI M7-A7), Table 4; details: 26 isolates; for MIC90: Streptococcus pneumoniae
Method: (§2) The MIC90 values were determined according to the broth microdilution method outlined in the Clinical and Laboratory Standards Institute Approved Standard M7-A7 (2006).

[8] = test system: S. pneumoniae, penicillin-intermediately resistant; assay: MIC90, broth microdilution (CLSI M7-A7), Table 4; details: Streptococcus pneumoniae, 26 isolates
Method: as §2

[9] = test system: S. aureus, vancomycin-intermediately resistant; assay: MIC90, broth microdilution (CLSI M7-A7), Table 4; details: Staphylococcus aureus, 23 isolates
Method: as §2

[10] = test system: E. cloacae, extended-spectrum β-lactamase positive; assay: MIC90, broth microdilution (CLSI M7-A7), Table 4; details: Enterobacter cloacae, 15 isolates
Method: as §2

[11] = test system: S. aureus, methicillin- and ciprofloxacin-resistant; assay: MIC90, broth microdilution (CLSI M7-A7), Table 4; details: Staphylococcus aureus, 24 isolates
Method: as §2

[12] = test system: S. aureus, vancomycin-resistant; assay: MIC90, broth microdilution (CLSI M7-A7), Table 4; details: Staphylococcus aureus, 3 isolates, read-out: MIC90 Geometric Mean
Method: as §2

[13] = test system: H. influenzae, β-lactamase positive, ampicillin-resistant; assay: MIC90, broth microdilution (CLSI M7-A7), Table 4; details: 25 isolates; for MIC90: Haemophilus influenzae
Method: as §2

[14] = test system: S. pneumoniae, levofloxacin-resistant; assay: MIC90, broth microdilution (CLSI M7-A7), Table 4; details: Streptococcus pneumoniae, 25 isolates
Method: as §2

[15] = test system: S. epidermidis, methicillin-resistant; assay: MIC90, broth microdilution (CLSI M7-A7), Table 4; details: Staphylococcus epidermidis, 64 isolates
Method: as §2

[16] = test system: H. influenzae, β-lactamase positive; assay: MIC90, broth microdilution (CLSI M7-A7), Table 4; details: 53 isolates; for MIC90: Haemophilus influenzae
Method: as §2

[17] = test system: S. aureus, methicillin-resistant and ciprofloxacin-sensitive; assay: MIC90, broth microdilution (CLSI M7-A7), Table 4; details: 25 isolates; for MIC90: Staphylococcus aureus
Method: as §2

MIC90 [5] [µg/mL]	MIC90 Range [6] [µg/mL]	MIC90 [6] [µg/mL]	MIC90 Range [7] [µg/mL]	MIC90 ([7]; read-out: MIC90 Geometric Mean) [µg/mL]	MIC90 ([7]; read-out: MIC90 Value) [µg/mL]	MIC90 ([8]; read-out: MIC90 Geometric Mean) [µg/mL]	MIC90 ([8]; read-out: MIC90 Value) [µg/mL]	MIC90 ([9]; read-out: MIC90 Geometric Mean) [µg/mL]	MIC90 ([9]; read-out: MIC90 Value) [µg/mL]	MIC90 ([10]; read-out: MIC90 Geometric Mean) [µg/mL]	MIC90 ([10]; read-out: MIC90 Value) [µg/mL]	MIC90 ([11]; read-out: MIC90 Geometric Mean) [µg/mL]	MIC90 ([11]; read-out: MIC90 Value) [µg/mL]	MIC90 [12] [µg/mL]	MIC90 Range [13] [µg/mL]	MIC90 ([13]; read-out: MIC90 Geometric Mean) [µg/mL]	MIC90 ([13]; read-out: MIC90 Value) [µg/mL]	MIC90 ([14]; read-out: MIC90 Geometric Mean) [µg/mL]	MIC90 ([14]; read-out: MIC90 Value) [µg/mL]	Structure (SMILES)	other results
																				O=C(O)c1cn(C2CC2)c2cc(N3CCNCC3)c(F)cc2c1=O [CPLX, ciprofloxacin]	MIC90 (OFLX-resistant S. aureus): 147 µg/mL (≈ 444 µM); MIC90 Range [1]: 0.5 to 2 µg/mL; MIC90 (GM-resistant S. aureus): 26 µg/mL (≈ 78.5 µM); MIC90 Range ([2]; APC-resistant Haemophilus influenza., 10 isolates): ≦0.06 μg/ml; MIC90 ([2]; read-out: MIC90 Geometric Mean): ≤ 0.06 µg/mL; MIC90 ([2]; read-out: MIC90 Value): ≤ 0.06 µg/mL; MIC90 Range ([3]; OFLX-resistant Enterobacteriaceae, 10 isolates): 4 to 32 µg/mL; MIC90 ([3]; read-out: MIC90 Geometric Mean): 10.6 µg/mL (≈ 32 µM); MIC90 Range [4]: 0.13 to 32 µg/mL; MIC90 ([4]; Pseudomonas aeruginosa, read-out: MIC90 Geometric Mean): 1.87 µg/mL (≈ 5.64 µM)
2 (≈ 5.33 µM)	0.12 to 0.5	0.25 (≈ 0.666 µM)	0.12 to 0.5	0.293 (≈ 0.781 µM)	0.5 (≈ 1.33 µM)	0.344 (≈ 0.916 µM)	0.5 (≈ 1.33 µM)	3.65 (≈ 9.72 µM)	8 (≈ 21.3 µM)	1.58 (≈ 4.21 µM)	> 8	> 8	> 8	6.35 (≈ 16.9 µM)	0.008 to 0.06	0.022 (≈ 0.0586 µM)	0.03 (≈ 0.0799 µM)	5.43 (≈ 14.5 µM)	> 8	COc1c(N2CCNC(C)C2)c(F)cc2c(=O)c(C(=O)O)cn(C3CC3)c12 (stereo not shown) [GTFX, gatifloxacin]	MIC90 ([15]; read-out: MIC90 Geometric Mean): 1.43 µg/mL (≈ 3.8 µM); MIC90 ([15]; read-out: MIC90 Value): > 8 µg/mL; MIC90 ([16]; read-out: MIC90 Geometric Mean): 0.014 µg/mL (≈ 0.0373 µM); MIC90 ([16]; read-out: MIC90 Value): 0.03 µg/mL (≈ 0.0799 µM); MIC90 Range [17]: 0.03 to 8 µg/mL; MIC90 ([17]; read-out: MIC90 Geometric Mean): 0.099 µg/mL (≈ 0.264 µM); MIC90 ([17]; read-out: MIC90 Value): 0.12 µg/mL (≈ 0.32 µM)
4 (≈ 11.1 µM)	0.5 to 2	1 (≈ 2.77 µM)																		C[C@H]1COc2c(N3CCN(C)CC3)c(F)cc3c(=O)c(C(=O)O)cn1c23 [LVFX, levofloxacin]	
	0.06 to 0.25	0.12 (≈ 0.299 µM)	0.06 to 0.25	0.217 (≈ 0.541 µM)	0.25 (≈ 0.623 µM)	0.209 (≈ 0.521 µM)	0.25 (≈ 0.623 µM)	2.69 (≈ 6.7 µM)	8 (≈ 19.9 µM)	2.75 (≈ 6.85 µM)	> 8	6.92 (≈ 17.2 µM)	> 8	6.35 (≈ 15.8 µM)	0.015 to 0.12	0.047 (≈ 0.117 µM)	0.12 (≈ 0.299 µM)	3.68 (≈ 9.17 µM)	> 8	COc1c(N2C[C@@H]3CCCN[C@@H]3C2)c(F)cc2c(=O)c(C(=O)O)cn(C3CC3)c12 [MOFX, moxifloxacin]	MIC90 ([15]; read-out: MIC90 Geometric Mean): 1.12 µg/mL (≈ 2.8 µM); MIC90 ([15]; read-out: MIC90 Value): > 8 µg/mL; MIC90 Range [16]: 0.015 to 0.06 µg/mL; MIC90 ([16]; read-out: MIC90 Geometric Mean): 0.03 µg/mL (≈ 0.0747 µM); MIC90 ([16]; read-out: MIC90 Value): 0.06 µg/mL (≈ 0.149 µM); MIC90 Range [17]: 0.015 to 8 µg/mL; MIC90 ([17]; read-out: MIC90 Geometric Mean): 0.057 µg/mL (≈ 0.142 µM); MIC90 ([17]; read-out: MIC90 Value): 0.12 µg/mL (≈ 0.299 µM)
